{"source": "paper PMC11062899", "about": "“De novo development of small cyclic peptides that are orally bioavailable” (Nature Chemical Biology, 2023)", "key": {"human α-thrombin": {"target": "human α-thrombin (Homo sapiens, UniProt P00734)", "test": "Protease inhibition, Ki for human α-thrombin (fluorogenic substrate Z-Gly-Gly-Arg-AMC)", "type": "biochemical", "settings": "for Human alpha thrombin inhibition, slope normalized to DMSO: replicates R1-R3", "protocol": "(§1) The inhibition constants (Ki) of cyclic peptides were calculated by measuring thrombin inhibition in the presence of different concentrations of the cyclic peptides. […] Human α-thrombin (Molecular Innovations) and rat α-thrombin (Molecular Innovations) were used at final concentrations of 2 nM and 3 nM, respectively, and fluorogenic substrate (Z-Gly-Gly-Arg-AMC, Bachem) was used at a concentration of 50 μM. Enzymatic activity was determined by measuring fluorescent gain on a Tecan Infinite M200 Pro microplate reader (excitation: 360 nm, emission: 465 nm) or a PHERAstar FSX microplate reader (excitation: 380 nm, emission: 440 nm) for 30 min at 25 °C with a fluorescent readout every 3 min. The two instruments were controlled with Tecan Infinite M200 Pro instrument software (iControl, version 1.12) and PHERAstar FSX software (version 5.70, edition 8), respectively. Protease inhibition was calculated by comparing the enzymatic activity to a control without cyclic peptide.\n(§2) Half maximal inhibitory concentration (IC50) values were determined using a four-parameter logistic regression model in GraphPad Prism 9 to fit sigmoidal curves to the acquired data points according to equation (2) below.2 y=b+a−b/1+10^(logIC50−x)p where a and b represent the measured inhibition maximum and minimum, respectively; x is the logarithm of peptide concentration; y is the thrombin activity compared to a control without the cyclic peptide; and p is the Hill coefficient.\n(§3) Ki values were calculated using the IC50 and the Cheng–Prusoff equation (equation (3)).3 Ki=IC50/1+S0/Km where Km is the Michaelis–Menten constant of the enzyme for the substrate used in the assay, and [S]0 is the initial substrate concentration."}, "rat α-thrombin": {"target": "T1, rat α-thrombin (Rattus norvegicus, UniProt P18292)", "T1 construct": "rat α-thrombin (Molecular Innovations) were used at final concentrations of 2 nM and 3 nM; purchased Molecular Innovations", "test": "Protease inhibition, Ki for rat α-thrombin (fluorogenic substrate Z-Gly-Gly-Arg-AMC)", "type": "biochemical", "settings": "for Rat alpha thrombin inhibition, slope normalized to DMSO: replicates R1-R3", "protocol": "as §1, §2, §3"}, "[1]": {"test": "Passive artificial membrane permeability (PAMPA)"}, "[2]": {"settings": "peptide concentration 1.00E+02 uM"}, "[3]": {"settings": "peptide concentration 1.19E-05 uM"}, "[4]": {"settings": "peptide concentration 1.22E-02 uM"}, "[5]": {"settings": "peptide concentration 1.25E+01 uM"}, "[6]": {"settings": "peptide concentration 1.53E-03 uM"}, "[7]": {"settings": "peptide concentration 1.56E+00 uM"}, "[8]": {"settings": "peptide concentration 1.91E-04 uM"}, "[9]": {"settings": "peptide concentration 1.95E-01 uM"}, "[10]": {"settings": "peptide concentration 2.38E-05 uM"}, "[11]": {"settings": "peptide concentration 2.44E-02 uM"}, "[12]": {"settings": "peptide concentration 2.50E+01 uM"}, "[13]": {"settings": "peptide concentration 3.05E-03 uM"}, "[14]": {"settings": "peptide concentration 3.12E+00 uM"}, "[15]": {"settings": "peptide concentration 3.81E-04 uM"}, "[16]": {"settings": "peptide concentration 3.91E-01 uM"}, "[17]": {"settings": "peptide concentration 4.77E-05 uM"}, "[18]": {"settings": "peptide concentration 4.88E-02 uM"}, "[19]": {"settings": "peptide concentration 5.00E+01 uM"}, "[20]": {"settings": "peptide concentration 6.10E-03 uM"}, "[21]": {"settings": "peptide concentration 6.25E+00 uM"}, "[22]": {"settings": "peptide concentration 7.63E-04 uM"}, "[23]": {"settings": "peptide concentration 7.81E-01 uM"}, "[24]": {"settings": "peptide concentration 9.54E-05 uM"}, "[25]": {"settings": "peptide concentration 9.77E-02 uM"}}, "note": "“And” between values parts separate entries of the source, which are not always exact repeats. Identical values can stand only once. Like-named read-outs stand apart in the source and are kept apart here.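 For Permeability% Average in this document: top well sample relative to theoretical equilibrium sample by TIC.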"}
{"smiles": "O=C1C[C@H]2CCCN2C(=O)[C@H](Cc2ccccc2)NC(=O)[C@@H](NC(=O)c2ccc(Cl)s2)CCC=CCCCN1", "note": "[compound 41]", "values": [{"measurement": "Ki", "setting": "human α-thrombin; average of R1-R3, read-out: Human alpha thrombin inhibition, Ki Average", "value": 1570, "unit": "nM"}, {"measurement": "Human alpha thrombin inhibition, slope normalized to DMSO", "setting": "human α-thrombin; [2]", "value": "9.8 and 10.5 and 10.6"}, {"measurement": "Human alpha thrombin inhibition, slope normalized to DMSO", "setting": "human α-thrombin; [3]", "value": "108.3 and 123.2 and 86.4"}, {"measurement": "Human alpha thrombin inhibition, slope normalized to DMSO", "setting": "human α-thrombin; [4]", "value": "81.6 and 60.4 and 71.9"}, {"measurement": "Human alpha thrombin inhibition, slope normalized to DMSO", "setting": "human α-thrombin; [5]", "value": "16.2 and 18.0 and 13.2"}, {"measurement": "Human alpha thrombin inhibition, slope normalized to DMSO", "setting": "human α-thrombin; [6]", "value": "102.7 and 105.3 and 96.0"}, {"measurement": "Human alpha thrombin inhibition, slope normalized to DMSO", "setting": "human α-thrombin; [7]", "value": "60.1 and 45.1 and 57.4"}, {"measurement": "Human alpha thrombin inhibition, slope normalized to DMSO", "setting": "human α-thrombin; [8]", "value": "110.2 and 100.0 and 95.6"}, {"measurement": "Human alpha thrombin inhibition, slope normalized to DMSO", "setting": "human α-thrombin; [9]", "value": "90.5 and 54.5 and 66.4"}, {"measurement": "Human alpha thrombin inhibition, slope normalized to DMSO", "setting": "human α-thrombin; [10]", "value": "111.1 and 102.0 and 98.3"}, {"measurement": "Human alpha thrombin inhibition, slope normalized to DMSO", "setting": "human α-thrombin; [11]", "value": "60.0 and 83.9 and 99.7"}, {"measurement": "Human alpha thrombin inhibition, slope normalized to DMSO", "setting": "human α-thrombin; [12]", "value": "16.8 and 4.9 and 12.0"}, {"measurement": "Human alpha thrombin inhibition, slope normalized to DMSO", "setting": "human α-thrombin; [13]", "value": "65.1 and 103.9 and 92.0"}, {"measurement": "Human alpha thrombin inhibition, slope normalized to DMSO", "setting": "human α-thrombin; [14]", "value": "47.1 and 40.3 and 37.6"}, {"measurement": "Human alpha thrombin inhibition, slope normalized to DMSO", "setting": "human α-thrombin; [15]", "value": "113.9 and 97.1 and 98.1"}, {"measurement": "Human alpha thrombin inhibition, slope normalized to DMSO", "setting": "human α-thrombin; [16]", "value": "59.1 and 81.1 and 60.5"}, {"measurement": "Human alpha thrombin inhibition, slope normalized to DMSO", "setting": "human α-thrombin; [17]", "value": "106.6 and 104.5 and 98.0"}, {"measurement": "Human alpha thrombin inhibition, slope normalized to DMSO", "setting": "human α-thrombin; [18]", "value": "96.4 and 58.3 and 94.8"}, {"measurement": "Human alpha thrombin inhibition, slope normalized to DMSO", "setting": "human α-thrombin; [19]", "value": "14.2 and 14.0 and 12.9"}, {"measurement": "Human alpha thrombin inhibition, slope normalized to DMSO", "setting": "human α-thrombin; [20]", "value": "78.1 and 71.3 and 72.1"}, {"measurement": "Human alpha thrombin inhibition, slope normalized to DMSO", "setting": "human α-thrombin; [21]", "value": "15.4 and 28.4 and 22.2"}, {"measurement": "Human alpha thrombin inhibition, slope normalized to DMSO", "setting": "human α-thrombin; [22]", "value": "61.4 and 105.9 and 50.7"}, {"measurement": "Human alpha thrombin inhibition, slope normalized to DMSO", "setting": "human α-thrombin; [23]", "value": "75.8 and 62.9 and 64.9"}, {"measurement": "Human alpha thrombin inhibition, slope normalized to DMSO", "setting": "human α-thrombin; [24]", "value": "104.3 and 61.9 and 103.5"}, {"measurement": "Human alpha thrombin inhibition, slope normalized to DMSO", "setting": "human α-thrombin; [25]", "value": "84.6 and 105.9 and 85.2"}, {"measurement": "IC50", "setting": "human α-thrombin; single replicates R1-R3, read-out: Human alpha thrombin inhibition, IC50", "value": "2700 nM and 1730 nM and 1690 nM"}, {"measurement": "Ki", "setting": "human α-thrombin; single replicates R1-R3, read-out: Human alpha thrombin inhibition, Ki", "value": "2.08 µM (2×) and 1.34 µM (2×) and 1.3 µM (2×)"}, {"measurement": "Ki", "setting": "rat α-thrombin; average of R1-R3, read-out: Rat alpha thrombin inhibition, Ki Average", "value": 180, "unit": "nM"}, {"measurement": "Rat alpha thrombin inhibition, slope normalized to DMSO", "setting": "rat α-thrombin; [2]", "value": "5.3 and 5.7 and 4.1"}, {"measurement": "Rat alpha thrombin inhibition, slope normalized to DMSO", "setting": "rat α-thrombin; [3]", "value": "101.7 and 102.1 and 101.8"}, {"measurement": "Rat alpha thrombin inhibition, slope normalized to DMSO", "setting": "rat α-thrombin; [4]", "value": "87.5 and 92.0 and 84.9"}, {"measurement": "Rat alpha thrombin inhibition, slope normalized to DMSO", "setting": "rat α-thrombin; [5]", "value": "9.2 and 8.7 and 7.8"}, {"measurement": "Rat alpha thrombin inhibition, slope normalized to DMSO", "setting": "rat α-thrombin; [6]", "value": "94.8 and 97.7 and 92.4"}, {"measurement": "Rat alpha thrombin inhibition, slope normalized to DMSO", "setting": "rat α-thrombin; [7]", "value": "25.0 and 25.1 and 31.0"}, {"measurement": "Rat alpha thrombin inhibition, slope normalized to DMSO", "setting": "rat α-thrombin; [8]", "value": "106.1 and 99.6 and 88.4"}, {"measurement": "Rat alpha thrombin inhibition, slope normalized to DMSO", "setting": "rat α-thrombin; [9]", "value": "69.0 and 50.2 and 49.8"}, {"measurement": "Rat alpha thrombin inhibition, slope normalized to DMSO", "setting": "rat α-thrombin; [10]", "value": "103.2 and 98.1 and 102.8"}, {"measurement": "Rat alpha thrombin inhibition, slope normalized to DMSO", "setting": "rat α-thrombin; [11]", "value": "92.3 and 89.1 and 86.1"}, {"measurement": "Rat alpha thrombin inhibition, slope normalized to DMSO", "setting": "rat α-thrombin; [12]", "value": "4.2 and 6.8 and 8.8"}, {"measurement": "Rat alpha thrombin inhibition, slope normalized to DMSO", "setting": "rat α-thrombin; [13]", "value": "99.2 and 99.8 and 88.1"}, {"measurement": "Rat alpha thrombin inhibition, slope normalized to DMSO", "setting": "rat α-thrombin; [14]", "value": "8.2 and 23.7 and 18.2"}, {"measurement": "Rat alpha thrombin inhibition, slope normalized to DMSO", "setting": "rat α-thrombin; [15]", "value": "107.3 and 92.0 and 81.7"}, {"measurement": "Rat alpha thrombin inhibition, slope normalized to DMSO", "setting": "rat α-thrombin; [16]", "value": "38.0 and 46.4 and 45.2"}, {"measurement": "Rat alpha thrombin inhibition, slope normalized to DMSO", "setting": "rat α-thrombin; [17]", "value": "102.3 and 101.4 and 86.4"}, {"measurement": "Rat alpha thrombin inhibition, slope normalized to DMSO", "setting": "rat α-thrombin; [18]", "value": "83.5 and 87.2 and 79.0"}, {"measurement": "Rat alpha thrombin inhibition, slope normalized to DMSO", "setting": "rat α-thrombin; [19]", "value": "3.7 and 8.5 and 7.9"}, {"measurement": "Rat alpha thrombin inhibition, slope normalized to DMSO", "setting": "rat α-thrombin; [20]", "value": "92.6 and 94.8 and 84.9"}, {"measurement": "Rat alpha thrombin inhibition, slope normalized to DMSO", "setting": "rat α-thrombin; [21]", "value": "13.6 and 12.8 and 13.7"}, {"measurement": "Rat alpha thrombin inhibition, slope normalized to DMSO", "setting": "rat α-thrombin; [22]", "value": "102.3 and 100.6 and 67.7"}, {"measurement": "Rat alpha thrombin inhibition, slope normalized to DMSO", "setting": "rat α-thrombin; [23]", "value": "42.8 and 23.4 and 43.3"}, {"measurement": "Rat alpha thrombin inhibition, slope normalized to DMSO", "setting": "rat α-thrombin; [24]", "value": "92.9 and 92.2 and 96.6"}, {"measurement": "Rat alpha thrombin inhibition, slope normalized to DMSO", "setting": "rat α-thrombin; [25]", "value": "73.2 and 69.4 and 67.8"}, {"measurement": "IC50", "setting": "rat α-thrombin; single replicates R1-R3, read-out: Rat alpha thrombin inhibition, IC50", "value": "326 nM and 228 nM and 420 nM"}, {"measurement": "Ki", "setting": "rat α-thrombin; single replicates R1-R3, read-out: Rat alpha thrombin inhibition, Ki", "value": "180 nM (2×) and 126 nM (2×) and 232 nM (2×)"}, {"measurement": "PAMPA permeability: % permeability", "setting": "[1]; 50 μM, 12–18 h, acceptor concentration relative to equilibrium", "value": "64 ± 11", "unit": "%"}, {"measurement": "Permeability% (single replicates R1–R3)", "setting": "[1]; 50 μM, 13 h (Fig. 5d)", "value": "76.34% and 63.06% and 53.71%"}, {"measurement": "Permeability% Average", "setting": "[1]; 50 μM, 13 h (Fig. 5d)", "value": 64.4, "unit": "%"}, {"measurement": "Papp at 50 μM", "setting": "[1]; PAMPA, pH 7.4", "value": 9.33, "unit": "×10⁻⁶ cm/s"}]}
